Results on 3 compounds are retold here after patent US20080139804A1, “Photosensitive Compounds” (priority 2005, published 2008).

Where “and” joins values, the source holds several entries; their conditions need not be identical. Identical values can stand only once. Entries after “also recorded” stand apart in the source; their conditions may differ.

The conditions of data set [1]: patients administered therewith; cited from earlier work.
In a further data set the test system is cancer cells. Particulars: photo-irradiation; cited from earlier work.
Data set [2] is described as follows: In vivo pharmacokinetics of zinc coproporphyrin-I in HeLa tumor-bearing nude mice (tissue fluorescence). More on the design: species or system (BALB/c) nude mouse. The following applies: 25 mg/kg intravenous in physiological saline, back and muscle, excitation 405 nm, fluorescence 580 nm.
Description: In the back of a (BALB/c) nude mouse, 5×10^6 HeLa cells in 0.1 ml were transplanted intradermally. When the tumor grew to 12-17 mm diameter, 25 mg/kg of zinc coproporphyrin-I in physiological saline was intravenously injected, and mice were sacrificed at each time shown in FIG. 2, and then zinc coproporphyrin-I in 3 kinds of tissues (tumor, back and muscle) was measured with excitation at 405 nm and fluorescence at 580 nm.
The nature of data set [3]: Photophysical characteristics: absorption spectrum. Type of data set: physicochemical. The source says:
Measurement of Photophysical Characteristics of Zinc Coproporphyrin-I

The nature of data set [4]: Photophysical characteristics: generation of singlet oxygen (near infrared emission). Type of data set: physicochemical. The following applies: excitation at 563 nm, emission at 1270 nm in near infrared light. From the text: Also, the generation of singlet oxygen was confirmed with excitation at 563 nm and emission at 1270 nm in near infrared light.
The test system of another data set is DNA. The experiment in a line: DNA breakage under light irradiation. Type of data set: biochemical. Particulars: under the irradiation of 350 nm light. The source says: (§1) Thus, after systemic administration of these compounds systemically, cancer tissues can be selectively killed, and the cancer can be treated without side effects by irradiating light only on the cancer tissues. Therefore, these compounds can be used as photodynamic therapy agents not only for surface cancer types (for example, breast cancer, skin cancer, esophageal cancer) but also deep cancer types (for example, gastric cancer, lung cancer).

Data set [5] is described as follows: Anti-cellular activity with and without light irradiation, in vitro system using mice. Type of data set: cell-based.
From the text: as §1

Another data set has as its system HeLa tumor. Nature of the data set: Drug efficacy of the agent for photodynamic therapy: laser irradiation of HeLa tumor in nude mouse, HE-stained sections. Particulars: 203 mg/kg i.v.; YAG-Dye laser 580 nm after 28 minutes, 100 J/cm^2; tumors excised 24 hours after irradiation.

Consider `C=CC1=C(C)C2=CC3=C(/C=C/NO)C(C)(O)C(=CC4=NC(=CC5=NC(=CC1=N2)C(C)=C5CCC(=O)N[C@@H](CC(=O)[O-])C(=O)[O-])C(CCC(=O)N[C@@H](CC(=O)[O-])C(=O)[O-])=C4C)N3.[Na+].[Na+].[Na+].[Na+]` (stereo partly shown) [ATX-S10 (Na)], for which, in data set [1], the “complete excretion period from the body” value was 7 to 8 h.

In the case of coproporphyrin-III, the “toxic effect on cancer cells compared to that of hematoporphyrin” value in the data set with cancer cells was “superior toxic effect”.

Take zinc coproporphyrin-I: the “time until excreted out of the body” value in data set [2] was in the range of 3 to 4 days. Moreover, the absorption peaks in data set [3] was 403 nm and 535 nm and 571 nm. In data set [4], the “generation of singlet oxygen” value is recorded as “confirmed”. The DNA breakage entry in the data set on DNA was “can break DNA efficiently”. For the same compound, the “anti-cellular activity under the irradiation of light” value in data set [5] (irradiation of light which induces DNA cleavage) is given as “strong anti-cellular activity”. The “anti-cellular activity by themselves” value in data set [5] (without light irradiation) was “do not demonstrate any anti-cellular activity”. Also, in the data set on HeLa tumor, the “cells appearing to be dead” value is on record as “about 10 % of the total cells”; the “histological observations after light irradiation of the HeLa tumor” value was “thrombus formation in the capillary vessels and hemorrhage inside of the tissues; also recorded: anucleated cells, chromatin condensed cells and cells with ruptured vacuoles were seen”.
